Where two headings read alike, the source gives them in different places. No end group written: not given here.
Experiments:
MDCK II cells = details: 48 h; for Normalized data, cell viability: MDCK II, 100 µM peptides, CellTiter-Glo, normalized to DMSO control = 100% viability
[1] = test system: larvae of the greater wax moth (Galleria mellonella); assay: Insecticidal activity, injection into larvae; format: in vivo; details: G. mellonella larvae, 10 specimens; for Injected larvae surviving: injection of 5 µL of 10 mM stock in DMSO/water, at least 72 h
[2] = test system: Influenza A/Hessen/1/03 (H3N2) in MDCK II cells; format: cell-based, influenza A virus; details: 100 µM peptides, 48 h
[3] = test system: Influenza A/Hamburg/5/09 (H1N1) in MDCK II cells; format: cell-based, influenza A virus; details: 100 µM peptides, 48 h
[4] = test system: Influenza B/Malaysia/2506/04 (Victoria lineage) in MDCK II cells; format: cell-based, influenza B virus; details: B/Mal, 100 µM peptides, 48 h
[5] = test system: Influenza B/Massachusetts/71 (Yamagata lineage) in MDCK II cells; format: cell-based, influenza B virus; details: B/Mass, 100 µM peptides, 48 h
[6] = test system: Escherichia coli, Staphylococcus aureus, Staphylococcus epidermidis, Pseudomonas aeruginosa (strains 50071 and 1117), Micrococcus luteus, Listeria …; assay: Antibacterial activity, statements for the whole panel of seven strains; format: cell-based; details: 100 µM, after 48 h, MH II medium, 37 °C, OD600, triplicate

## C[C@H](CCC(=O)O)C[C@H](C)C[C@H](C)C(=O)/C=C(\O)[C@H](C)C[C@H](C)C/C=C/[C@@H](C)[C@@H](O)[C@@H](C)[C@@H](O)C[C@@H]1CC[C@@](C)([C@H]2CC[C@@](C)([C@@H](C)O)O2)O1 [Ionomycin, ionomycin, reference compound]
MDCK II cells; MDCK II cells, 100 µM, 1% DMSO, CellTiter-Glo luminescence, triplicate
  Cytotoxicity (cell viability), in words: high cytotoxicity
MDCK II cells; replicate 1
  Normalized data, cell viability: 0.2057%
MDCK II cells; replicate 2
  Normalized data, cell viability: 0.1877%
MDCK II cells; replicate 3
  Normalized data, cell viability: 0.1629%

## CCO [ethanol, reference compound]
[1]; injection (peptides 5 µL of 10 mM stock; ethanol control 10 µL), 72 h
  Larvae killed (mortality): 70%

## IDPKLLESLA-NH2 (C-terminus assumed) [U-MYRTX-Mrub2a]
[2]; replicate 1
  Normalized to Aprotinin =1 (protection): 0.09958
[2]; replicate 2
  Normalized to Aprotinin =1 (protection): 0.07892
[2]; replicate 3
  Normalized to Aprotinin =1 (protection): 0.1212
[3]; replicate 1
  Normalized to Aprotinin =1 (protection): 0.07403
[3]; replicate 2
  Normalized to Aprotinin =1 (protection): 0.07306
[3]; replicate 3
  Normalized to Aprotinin =1 (protection): 0.0814
[4]; replicate 1
  Normalized to Aprotinin =1 (protection): 0.08852
[4]; replicate 2
  Normalized to Aprotinin =1 (protection): 0.1729
[4]; replicate 3
  Normalized to Aprotinin =1 (protection): 0.1453
[5]; replicate 1
  Normalized to Aprotinin =1 (protection): 0.008341
[5]; replicate 2
  Normalized to Aprotinin =1 (protection): 0.1091
[5]; replicate 3
  Normalized to Aprotinin =1 (protection): 0.1749
[6]
  Inhibition of bacterial growth, in words: no significant inhibition of bacterial growth

## IDPKVLESLA-NH2 (C-terminus assumed) [U-MYRTX-Mrug2a]
[2]; replicate 1
  Normalized to Aprotinin =1 (protection): 0.06351
[2]; replicate 2
  Normalized to Aprotinin =1 (protection): 0.02791
[2]; replicate 3
  Normalized to Aprotinin =1 (protection): 0.04387
[3]; replicate 1
  Normalized to Aprotinin =1 (protection): -0.00333
[3]; replicate 2
  Normalized to Aprotinin =1 (protection): 0.002305
[3]; replicate 3
  Normalized to Aprotinin =1 (protection): -0.007789
[4]; replicate 1
  Normalized to Aprotinin =1 (protection): 0.03996
[4]; replicate 2
  Normalized to Aprotinin =1 (protection): 0.0417
[4]; replicate 3
  Normalized to Aprotinin =1 (protection): 0.07904
[5]; replicate 1
  Normalized to Aprotinin =1 (protection): 0.01558
[5]; replicate 2
  Normalized to Aprotinin =1 (protection): 0.02606
[5]; replicate 3
  Normalized to Aprotinin =1 (protection): 0.02908
[6]
  Inhibition of bacterial growth, in words: no significant inhibition of bacterial growth

## IDPKVLESLL-NH2 (C-terminus assumed) [U-MYRTX-Mrug2b]
[2]; replicate 1
  Normalized to Aprotinin =1 (protection): 0.0328
[2]; replicate 2
  Normalized to Aprotinin =1 (protection): 0.05462
[2]; replicate 3
  Normalized to Aprotinin =1 (protection): 0.05537
[3]; replicate 1
  Normalized to Aprotinin =1 (protection): 0.05063
[3]; replicate 2
  Normalized to Aprotinin =1 (protection): 0.0441
[3]; replicate 3
  Normalized to Aprotinin =1 (protection): 0.04545
[4]; replicate 1
  Normalized to Aprotinin =1 (protection): 0.03893
[4]; replicate 2
  Normalized to Aprotinin =1 (protection): 0.02764
[4]; replicate 3
  Normalized to Aprotinin =1 (protection): 0.1043
[5]; replicate 1
  Normalized to Aprotinin =1 (protection): 0.01653
[5]; replicate 2
  Normalized to Aprotinin =1 (protection): 0.01885
[5]; replicate 3
  Normalized to Aprotinin =1 (protection): 0.02698
[1]
  Injected larvae surviving: 80%
[6]
  Inhibition of bacterial growth, in words: no significant inhibition of bacterial growth

## IDRSEKTERE-NH2 (C-terminus assumed) [U-MYRTX-Mrub3a]
[2]; replicate 1
  Normalized to Aprotinin =1 (protection): 0.1064
[2]; replicate 2
  Normalized to Aprotinin =1 (protection): 0.05676
[2]; replicate 3
  Normalized to Aprotinin =1 (protection): 0.1027
[3]; replicate 1
  Normalized to Aprotinin =1 (protection): 0.05191
[3]; replicate 2
  Normalized to Aprotinin =1 (protection): 0.05042
[3]; replicate 3
  Normalized to Aprotinin =1 (protection): 0.0422
[4]; replicate 1
  Normalized to Aprotinin =1 (protection): 0.04706
[4]; replicate 2
  Normalized to Aprotinin =1 (protection): 0.1383
[4]; replicate 3
  Normalized to Aprotinin =1 (protection): 0.1034
[5]; replicate 1
  Normalized to Aprotinin =1 (protection): 0.02341
[5]; replicate 2
  Normalized to Aprotinin =1 (protection): 0.02308
[5]; replicate 3
  Normalized to Aprotinin =1 (protection): 0.03331
[6]
  Inhibition of bacterial growth, in words: no significant inhibition of bacterial growth

## IDSDALKSLQ-NH2 (C-terminus assumed) [U-MYRTX-Mrub4a/Mrug7a]
[2]; replicate 1
  Normalized to Aprotinin =1 (protection): 0.05779
[2]; replicate 2
  Normalized to Aprotinin =1 (protection): 0.05634
[2]; replicate 3
  Normalized to Aprotinin =1 (protection): 0.06216
[3]; replicate 1
  Normalized to Aprotinin =1 (protection): 0.0395
[3]; replicate 2
  Normalized to Aprotinin =1 (protection): 0.05779
[3]; replicate 3
  Normalized to Aprotinin =1 (protection): 0.05022
[4]; replicate 1
  Normalized to Aprotinin =1 (protection): 0.06158
[4]; replicate 2
  Normalized to Aprotinin =1 (protection): 0.1088
[4]; replicate 3
  Normalized to Aprotinin =1 (protection): 0.1041
[5]; replicate 1
  Normalized to Aprotinin =1 (protection): 0.01827
[5]; replicate 2
  Normalized to Aprotinin =1 (protection): 0.02714
[5]; replicate 3
  Normalized to Aprotinin =1 (protection): 0.01553
[1]
  Injected larvae surviving: 80%
[6]
  Inhibition of bacterial growth, in words: no significant inhibition of bacterial growth

## IDSKAIKSLQ-NH2 (C-terminus assumed) [U-MYRTX-Mrub4b/Mrug3a]
[2]; replicate 1
  Normalized to Aprotinin =1 (protection): 0.06966
[2]; replicate 2
  Normalized to Aprotinin =1 (protection): 0.08008
[2]; replicate 3
  Normalized to Aprotinin =1 (protection): 0.07436
[3]; replicate 1
  Normalized to Aprotinin =1 (protection): 0.02574
[3]; replicate 2
  Normalized to Aprotinin =1 (protection): 0.02301
[3]; replicate 3
  Normalized to Aprotinin =1 (protection): 0.02813
[4]; replicate 1
  Normalized to Aprotinin =1 (protection): 0.05327
[4]; replicate 2
  Normalized to Aprotinin =1 (protection): 0.08884
[4]; replicate 3
  Normalized to Aprotinin =1 (protection): 0.1216
[5]; replicate 1
  Normalized to Aprotinin =1 (protection): 0.03499
[5]; replicate 2
  Normalized to Aprotinin =1 (protection): 0.02676
[5]; replicate 3
  Normalized to Aprotinin =1 (protection): 0.02366
[6]
  Inhibition of bacterial growth, in words: no significant inhibition of bacterial growth

## IDVYFILHLP-NH2 (C-terminus assumed) [U-MYRTX-Mrug4b]
[2]; replicate 1
  Normalized to Aprotinin =1 (protection): 0.06728
[2]; replicate 2
  Normalized to Aprotinin =1 (protection): 0.05537
[2]; replicate 3
  Normalized to Aprotinin =1 (protection): 0.07138
[3]; replicate 1
  Normalized to Aprotinin =1 (protection): -0.007928
[3]; replicate 3
  Normalized to Aprotinin =1 (protection): 0.0256
[4]; replicate 1
  Normalized to Aprotinin =1 (protection): 0.03762
[4]; replicate 2
  Normalized to Aprotinin =1 (protection): 0.02626
[4]; replicate 3
  Normalized to Aprotinin =1 (protection): 0.09882
[5]; replicate 1
  Normalized to Aprotinin =1 (protection): 0.01102
[5]; replicate 2
  Normalized to Aprotinin =1 (protection): 0.01257
[5]; replicate 3
  Normalized to Aprotinin =1 (protection): 0.01675

## INPKLLESL-NH2 (C-terminus assumed) [U-MYRTX-Mrug5b]
[2]; replicate 1
  Normalized to Aprotinin =1 (protection): 0.06533
[2]; replicate 2
  Normalized to Aprotinin =1 (protection): 0.04634
[2]; replicate 3
  Normalized to Aprotinin =1 (protection): 0.07887
[3]; replicate 1
  Normalized to Aprotinin =1 (protection): 0.02999
[3]; replicate 2
  Normalized to Aprotinin =1 (protection): 0.0228
[3]; replicate 3
  Normalized to Aprotinin =1 (protection): 0.007801
[4]; replicate 1
  Normalized to Aprotinin =1 (protection): 0.03907
[4]; replicate 2
  Normalized to Aprotinin =1 (protection): 0.06268
[4]; replicate 3
  Normalized to Aprotinin =1 (protection): 0.0833
[5]; replicate 1
  Normalized to Aprotinin =1 (protection): 0.0139
[5]; replicate 2
  Normalized to Aprotinin =1 (protection): 0.008064
[5]; replicate 3
  Normalized to Aprotinin =1 (protection): 0.0246
[1]
  Injected larvae surviving: 80%
[6]
  Inhibition of bacterial growth, in words: no significant inhibition of bacterial growth

## KDSDSLKSFQ-NH2 (C-terminus assumed) [U-MYRTX-Mrug6a]
[2]; replicate 1
  Normalized to Aprotinin =1 (protection): 0.08543
[2]; replicate 2
  Normalized to Aprotinin =1 (protection): 0.06156
[2]; replicate 3
  Normalized to Aprotinin =1 (protection): 0.07217
[3]; replicate 1
  Normalized to Aprotinin =1 (protection): 0.02785
[3]; replicate 2
  Normalized to Aprotinin =1 (protection): 0.0161
[3]; replicate 3
  Normalized to Aprotinin =1 (protection): 0.02305
[4]; replicate 1
  Normalized to Aprotinin =1 (protection): 0.0613
[4]; replicate 2
  Normalized to Aprotinin =1 (protection): 0.07745
[4]; replicate 3
  Normalized to Aprotinin =1 (protection): 0.114
[5]; replicate 1
  Normalized to Aprotinin =1 (protection): 0.007926
[5]; replicate 2
  Normalized to Aprotinin =1 (protection): 0.0129
[5]; replicate 3
  Normalized to Aprotinin =1 (protection): 0.01821
[6]
  Inhibition of bacterial growth, in words: no significant inhibition of bacterial growth

## aprotinin [reference compound]
[2]; replicate 1
  Normalized to Aprotinin =1 (protection): 1
[2]; replicate 2
  Normalized to Aprotinin =1 (protection): 1
[2]; replicate 3
  Normalized to Aprotinin =1 (protection): 1
[3]; replicate 1
  Normalized to Aprotinin =1 (protection): 1
[3]; replicate 2
  Normalized to Aprotinin =1 (protection): 1
[3]; replicate 3
  Normalized to Aprotinin =1 (protection): 1
[4]; replicate 1
  Normalized to Aprotinin =1 (protection): 1
[4]; replicate 2
  Normalized to Aprotinin =1 (protection): 1
[4]; replicate 3
  Normalized to Aprotinin =1 (protection): 1
[5]; replicate 1
  Normalized to Aprotinin =1 (protection): 1
[5]; replicate 2
  Normalized to Aprotinin =1 (protection): 1
[5]; replicate 3
  Normalized to Aprotinin =1 (protection): 1
